Reference: patent US8592374B2, “Neurotrophic peptides” (Research Foundation for Mental Hygiene, Inc., priority 2007, dated 2013)

Experiments:
[1] = tested on: neural progenitor cells of the dentate gyrus; experiment: Stereological counts of BrdU-IR cells in subregions of the hippocampus, 30-day pellets; format: in vivo, mice
Method: All in vivo studies for characterization of peptides (stereology and behavioral analysis) were performed on 8-10-month-old female retired breeders of C57Bl6 background. The animals were acclimatized for at least 3 weeks to exclude occasional pregnant mice from the studies. Mice were group-housed (3 animals per cage) with a 12:12 light:dark cycle and with free access to food and water. All procedures were conducted in accordance with approved protocols from our institutional Animal Welfare Committee.
(§1) To study neurogenesis, mice received subcutaneous implants of extended release depot pellets containing either CNTF peptides 6a or 6c for 30 days of continuous dosing (Innovative Research of America, Sarasota, Fla.). For control groups, the pellets consisted of the carrier biopolymer only. For implantation, the mice were anesthetized with 2.5% Avertin (0.38 ml for a 25 g animal). Under sterile conditions, the pellets were then subcutaneously implanted along the anterolateral aspect of the right shoulder with a precision trochar (Innovative Research of America). The animals were then transferred to the animal colony after recovery from anesthesia. There were no complications associated with the implantation and treatment. BrdU was given as two daily i.p. injections (100 mg/kg/dose) for five days starting on day 2 of peptide treatment. Neurogenesis was assessed in the dentate gyrus (DG) by counting the number of BrdU-immunoreactive (BrdU-IR), BrdU-DCX-IR and BrdU-NeuN-IR cells in various layers of the DG. Employing principles of unbiased stereology, the optical fractionator method was used to estimate cell counts for the DG.
At the end of treatment, all animals were anesthetized with an overdose of sodium pentobarbital and transcardially perfused with 0.1 M PBS. After perfusion, the brains were removed from the skull, the left hemisphere was immediately frozen for future biochemical analysis and the right hemisphere was fixed in 4% paraformaldehyde in 0.1 M PBS for at least 24 hours at room temperature. Tissues were then stored in 30% sucrose solutions at 4° C. until sectioning. The brains were sectioned sagittaly on a freezing sliding microtome at […] through the entire hippocampus and the sections were stored in glycol anti-freeze solution (Ethylene glycol, glycerol and 0.1 M PBS in 3:3:4 ratio) at −20° C. till further processing.
(§2) Immunohistochemistry was performed as described elsewhere (Kuhn et al., J. Neurosci 17 (15) (1997): 5820-5829). Briefly, every 5th brain section was chosen for quantification of cell number and every 10th section was chosen for staining intensity scanning. Immunohistochemistry was performed on free floating sections. For BrdU immunohistochemistry, epitope retrieval and staining were performed as previously described (Kuhn et al., J. Neurosci 17 (15) (1997): 5820-5829).
Neurogenesis was assessed in the DG by counting the number of BrdU-immunoreactive (BrdU-IR), BrdU-DCX-IR and BrdU-NeuN-IR cells in various layers of the DG. The granule cell layer (GCL) was subdivided into an inner and outer half (iGCL and oGCL). The iGCL consisted of the subgranular zone (SGZ, defined as a 2-3 nuclei thick layer bordering the GCL) and the inner half of the GCL adjacent to the Hilus (Hil); the outer GCL (oGCL) was defined as the half of the GCL adjacent to the Molecular layer (Mol). A cell in the middle of the GCL was considered part of the iGCL and a cell bordering the GCL in the Mol was included in oGCL counts. […] Hil included the superficial polymorphic layer.
All sections were collected using the random uniform sampling scheme. For BrdU-IR cells, counting was performed on every 5th section using 40× oil objective of a Nikon 90i fluorescent microscope equipped with Nikon C1 three laser confocal system and a Nikon DS U1 digital camera. Employing principles of unbiased stereology, the optical fractionator method was used to estimate cell counts for the DG (West et al., Anat Rec 231 (1991): 482-497). […]

[2] = tested on: granule cell layer of the dentate gyrus; experiment: Stereological counts of DCX-, BrdU-NeuN- and c-Fos-NeuN-IR cells in the granule cell layer; format: in vivo, mice
Method: as §1
(§3) The following primary antibodies were used for immunohistochemistry: anti-BrdU (1:400; Accurate) a rat monoclonal raised against BrdU; anti-DCX (1:200; Santa Cruz Biotechnology Inc.), a goat polyclonal antibody raised against an 18-amino acid peptide representing residues […] of human doublecortin; anti-NeuN (1:500; Chemicon), a mouse monoclonal antibody raised against purified cell nuclei from mouse brain; Anti-c-Fos (Ab-5) (1:500; Calbiochem), a rabbit polyclonal antibody raised against a synthetic peptide corresponding to amino-acids 4-17 of human c-Fos; SMI52 (1:1000; Sternberger Monoclonals), a mouse monoclonal antibody specific for the mature neuronal marker MAP2a,b; anti-synaptophysin, SYN (1:200; Chemicon), a mouse monoclonal antibody raised against vesicular fraction of bovine brain. The following secondary antibodies were used: Alexa 488-conjugated goat anti-mouse IgG antibody and Alexa 594-conjugated goat anti-rabbit or anti-rat IgG antibody (Molecular Probes); biotinylated anti-rat IgG antibody and Cy5-conjugated goat anti-mouse antibody (Jackson ImmunoResearch).
as §2
For BrdU-DCX-, BrdU-NeuN-, and c-Fos-NeuN-IR cells, only GCL (consisting of iGCL and oGLC described above) was counted using 100× oil objective in every 10th section. To ensure objectivity, z-stacks were collected for each double IR cell and analyzed later by generating maximum projection and 3D constructs.

GCL of the dentate gyrus = experiment: MAP2 and synaptophysin expression in the GCL (mean pixel intensity), Example 4; format: in vivo, mice; conditions: 30-day treatment
Description: as §3, with “The following secondary antibodies were used: Alexa 488-conjugated goat anti-mouse IgG antibody and Alexa 594-conjugated goat anti-rabbit or anti-rat IgG antibody (Molecular Probes); biotinylated anti-rat IgG antibody and Cy5-conjugated goat anti-mouse antibody (Jackson ImmunoResearch).” left out
For MAP2 and Synaptophysin IR, the entire area of GCL was outlined on every 10th section. Maximum projection images were then generated based on confocal z-stacks, and the antibody staining was quantitated by measuring mean pixel intensity (MPI) with the help of Image-Pro Plus 5.0 software (Media Cybernetics).

normal adult mice = experiment: Morris Water Maze task, CNTF 6a / CNTF 6c pellets 30 days; format: in vivo
Method: For behavioral studies, performance on the Morris Water Maze task was assessed in three groups of 10 mice each (placebo, CNTF6a and CNTF6c) which received peptide treatment for 30 days. To avoid daily stress due to injections, all animals undergoing behavioral studies received subcutaneous implants of CNTF 6a, CNTF 6c or placebo pellets as described above.
All animals for behavioral testing were coded such that the experimentator was blind to the assignment of the animals to specific treatment groups. The Morris Water Maze procedure was performed using a 110 cm diameter circular tank. Before training, the mice were handled gently for 2-3 min/day during 3 days to minimize non-specific stress. Acquisition was started with the submerged (invisible) escape platform in the North-East quadrant and each animal was given 60 sec to find the submerged escape platform. […] Five such acquisition trials were given on each day, for four consecutive days. A test for retention, or probe trial, was given 24 hours later. During the probe trial the mouse was allowed to swim in the tank without the escape platform for 60 seconds. This was followed by second and third probe trials 15 and 30 days from the first probe trial. Each probe trial was immediately followed by a “retraining session” consisting of 5 trials/animal to consolidate learned behavior.
The measures of learning were the time and distance swum to reach the escape platform. For retention during the probe trial, the tank was divided into four imaginary quadrants and a small zone where the escape platform had been (virtual platform). The measures of retention were the percent of time spent and the percent of distance swum in each quadrant, and the number of entries into the platform zone.
Mouse behavior in the Morris Water Maze was monitored by a Samsung Digital Camera (SDC 4304) mounted to the ceiling and tracked and timed by a SMART (Pan Lab/San Diego Instruments) version 2.0.14 software.
Since normal adult mice were used as experimental animals, it was crucial not to miss any effect on memory acquisition and learning that the 30-day peptide treatment might have had. Therefore, a partial training paradigm was used to evaluate learning and memory in the Morris Water Maze. Treated mice were trained on the Morris Water Maze for a total of 20 sessions spanning 4 days after which they were subjected to the first probe trial (P1). Two additional probe trials (P2 and P3) were administered 15 and 30 days after P1. […] Learning was evaluated in terms of latency and distance traveled to reach the invisible escape platform. Retention was measured on probe trials by the percent of time and travel distance in the target quadrant, and the number of crossings of the virtual platform.

[3] = 30-day pellets, 50 nmol/peptide/animal/day
[4] = 30-day treated mice (n = 5/group)

## Ac-DGGL-NH2 [CNTF 6c]
[1]; 30-day pellets
  BrdU-IR cells in oGCL, Mol or Hil compared to control: no significant differences
[1]; [3]
  increase of BrdU-IR cell counts in the GCL compared to placebo: 31%
  increase of number of BrdU-IR cells in the iGCL compared to control: 45%
[1]; [4]
  Stereological counts (±SEM) of BrdU-IR cells, GCL: 560 ± 24
  Stereological counts (±SEM) of BrdU-IR cells, Hil: 121 ± 16
  Stereological counts (±SEM) of BrdU-IR cells, Mol: 487 ± 28
  Stereological counts (±SEM) of BrdU-IR cells, iGCL: 486 ± 31
  Stereological counts (±SEM) of BrdU-IR cells, oGCL: 74 ± 10
[2]; [4]
  Stereological counts (±SEM) of cells expressing DCX in the granule cell layer: 656 ± 43
  Stereological counts (±SEM), NeuN-BrdU/BrdU in the granule cell layer: 39 ± 2
[2]; 30-day treated mice (n = 5/group), basal activity
  Stereological counts (±SEM) of c-fos-NeuN cells in the granule cell layer: 247 ± 23
[2]; 30-day treatment
  increase in BrdU-NeuN-IR cells in the GCL compared with placebo: 62%
  increase of DCX-IR cells in the GCL compared to placebo: ~91%
[2]; 30-day treatment, without behavioral stimulation
  increase in number of mature neurons (NeuN-IR) co-expressing c-fos in the GCL: ~47%
GCL of the dentate gyrus
  increase of MAP2 expression in the GCL (mean-pixel intensity): 31%
  increase of synaptophysin expression in the GCL (mean-pixel intensity): 26%
Normal adult mice; 30-day pellets, 20 training sessions over 4 days
  learning in the spatial reference memory task (swim latencies): no effect
Normal adult mice; P1, P2, P3
  percent time spent in the target quadrant across three probe trials: spent the same percent amount of time in the target quadrant
